US20160376605A1, “WHEAT PLANTS HAVING INCREASED TOLERANCE TO IMIDAZOLINONE HERBICIDES” (BASF SE, priority 2003, published 2016)

What was measured:
[1] = tested on: Durum wheat M3:4 lines derived from M2 plant UT01; assay: Field Trials (2): tolerance scores at two rates of imazamox; format: in vivo; settings: UT01, range across M3:4 lines
Description: (§1) One hundred ten M3:4 lines derived from sixteen M2 plants were screened at 71 g/ha and 160 g/ha imazamox. The number of M4 lines per M2 plant varied from one to twenty. Tolerance of M3:4 lines was compared to untreated plots of the same line as well as to treated plots of a wild-type cultivar from which some of them were derived.
(§2) All tested lines survived at both rates of herbicide treatment, whereas all plants of the wild type were killed at both rates. Based on comparison to the wild type line, all lines tested expressed considerable tolerance to the applied rates, particularly when looking at height reduction relative to untreated plots. A rate of 35 g/ha imazamox is adequate to kill susceptible durum wheat.

[2] = tested on: Durum wheat M3:4 lines derived from M2 plant UT03; assay: as above; format: in vivo; settings: UT03, range across M3:4 lines
Description: as §1, §2

[3] = tested on: Durum wheat M3:4 lines derived from M2 plant UT08; assay: as above; format: in vivo; settings: UT08, range across M3:4 lines
Description: as §1, §2

[4] = tested on: Durum wheat M3:4 lines derived from M2 plant UT12; assay: as above; format: in vivo; settings: UT12, range across M3:4 lines
Description: as §1, §2

[5] = tested on: Durum wheat M3:4 lines derived from M2 plant UT13; assay: as above; format: in vivo; settings: UT13, range across M3:4 lines
Description: as §1, §2

[6] = tested on: Durum wheat M3:4 lines derived from M2 plant UT14; assay: as above; format: in vivo; settings: UT14, range across M3:4 lines
Description: as §1, §2

[7] = tested on: Durum wheat M3:4 lines derived from M2 plant UT16; assay: as above; format: in vivo; settings: UT16, range across M3:4 lines
Description: as §1, §2

[8] = tested on: Durum wheat M3:4 lines derived from M2 plant UT17; assay: as above; format: in vivo; settings: UT17, range across M3:4 lines
Description: as §1, §2

[9] = tested on: Durum wheat M3:4 lines derived from M2 plant UT19; assay: as above; format: in vivo; settings: UT19, range across M3:4 lines
Description: as §1, §2

[10] = tested on: Wild Type durum wheat cultivar; assay: as above; format: in vivo; settings: for % Chlorosis / % Height Reduction: Wild Type
Description: as §1, §2

susceptible durum wheat = assay: Imazamox rate killing susceptible wheat; format: in vivo
Method: Nine M4:6 lines derived from four M2 plants (C119, C132, C137, CO12) were evaluated in a replicated trial at one location in a durum growing area in Italy. 75 g/ha of imazamox was applied to BBCH growth stage 21-25 plants. A rate of 35 g/ha would typically result in virtually 100% mortality of susceptible wheat. Percent crop response (overall injury) varied from 0 to 13% 21 days after treatment (DAT), and from 0 to 17% 43 DAT. Yield as a percent of the same line untreated varied from 85% to 102%.
as §2
A rate of 35 g/ha imazamox is adequate to kill susceptible Durum wheat.

[11] = tested on: One hundred ten M3:4 durum lines derived from sixteen M2 plants; assay: Field Trials (2): all tested M3:4 lines; format: in vivo, Durum wheat
Description: as §1, §2

[12] = tested on: AHAS of M2-derived imidazolinone herbicide tolerant lines; assay: In vitro AHAS activity, tolerant lines overall; format: biochemical, Durum wheat; settings: highest concentration of imazamox (100 uM), 'generally'
Description: The in vitro activity of AHAS enzyme extracted from the plant can be measured biochemically. […] Even at relatively low concentrations, AHAS activity falls off rapidly.
Table 3 also contains AHAS activity data for several M2-derived imidazolinone herbicide tolerant lines.

## COCc1cnc(C2=NC(C)(C(C)C)C(=O)N2)c(C(=O)O)c1 (stereo not shown) [imazamox]
[1]; imazamox 71 g/ha, 14 DAT
  % Chlorosis: 0-10%
  % Height Reduction: 0%
[1]; imazamox 71 g/ha, 30 DAT
  % Chlorosis: 0%
  % Height Reduction: 0-10%
[1]; imazamox 160 g/ha, 14 DAT
  % Chlorosis: 1-10%
  % Height Reduction: 0%
[1]; imazamox 160 g/ha, 30 DAT
  % Chlorosis: 0-5%
  % Height Reduction: 0-20%
[2]; imazamox 71 g/ha, 14 DAT
  % Chlorosis: 0%
  % Height Reduction: 10%
[2]; imazamox 71 g/ha, 30 DAT
  % Chlorosis: 5%
  % Height Reduction: 5%
[2]; imazamox 160 g/ha, 14 DAT
  % Chlorosis: 5%
  % Height Reduction: 10%
[2]; imazamox 160 g/ha, 30 DAT
  % Chlorosis: 5%
  % Height Reduction: 5%
[3]; imazamox 71 g/ha, 14 DAT
  % Chlorosis: 0-10%
  % Height Reduction: 0-10%
[3]; imazamox 71 g/ha, 30 DAT
  % Chlorosis: 0-10%
  % Height Reduction: 0-10%
[3]; imazamox 160 g/ha, 14 DAT
  % Chlorosis: 0-10%
  % Height Reduction: 0-10%
[3]; imazamox 160 g/ha, 30 DAT
  % Chlorosis: 0-15%
[4]; imazamox 71 g/ha, 14 DAT
  % Chlorosis: 0-10%
  % Height Reduction: 0-10%
[4]; imazamox 71 g/ha, 30 DAT
  % Chlorosis: 0-5%
  % Height Reduction: 0-10%
[4]; imazamox 160 g/ha, 14 DAT
  % Chlorosis: 10-15%
  % Height Reduction: 10-20%
[4]; imazamox 160 g/ha, 30 DAT
  % Chlorosis: 5-10%
  % Height Reduction: 5-10%
[5]; imazamox 71 g/ha, 14 DAT
  % Chlorosis: 5%
  % Height Reduction: 0-10%
[5]; imazamox 71 g/ha, 30 DAT
  % Chlorosis: 5%
  % Height Reduction: 5%
[5]; imazamox 160 g/ha, 14 DAT
  % Chlorosis: 5%
  % Height Reduction: 0-10%
[5]; imazamox 160 g/ha, 30 DAT
  % Chlorosis: 5-10%
  % Height Reduction: 5%
[6]; imazamox 71 g/ha, 14 DAT
  % Chlorosis: 5-10%
  % Height Reduction: 0%
[6]; imazamox 71 g/ha, 30 DAT
  % Chlorosis: 0%
  % Height Reduction: 0-10%
[6]; imazamox 160 g/ha, 14 DAT
  % Chlorosis: 10%
  % Height Reduction: 0-10%
[6]; imazamox 160 g/ha, 30 DAT
  % Chlorosis: 0%
  % Height Reduction: 0-10%
[7]; imazamox 71 g/ha, 14 DAT
  % Chlorosis: 5-10%
  % Height Reduction: 0%
[7]; imazamox 71 g/ha, 30 DAT
  % Chlorosis: 0%
  % Height Reduction: 0-10%
[7]; imazamox 160 g/ha, 14 DAT
  % Chlorosis: 10-20%
  % Height Reduction: 0-10%
[7]; imazamox 160 g/ha, 30 DAT
  % Chlorosis: 0-5%
  % Height Reduction: 0-10%
[8]; imazamox 71 g/ha, 14 DAT
  % Chlorosis: 5-20%
  % Height Reduction: 0-20%
[8]; imazamox 71 g/ha, 30 DAT
  % Chlorosis: 0%
  % Height Reduction: 5-20%
[8]; imazamox 160 g/ha, 14 DAT
  % Chlorosis: 5-30%
  % Height Reduction: 0-30%
[8]; imazamox 160 g/ha, 30 DAT
  % Chlorosis: 0-5%
  % Height Reduction: 5-30%
[9]; imazamox 71 g/ha, 14 DAT
  % Chlorosis: 30-40%
  % Height Reduction: 0-10%
[9]; imazamox 71 g/ha, 30 DAT
  % Chlorosis: 0%
  % Height Reduction: 5-20%
[9]; imazamox 160 g/ha, 14 DAT
  % Chlorosis: 40%
  % Height Reduction: 0-10%
[9]; imazamox 160 g/ha, 30 DAT
  % Chlorosis: 0-5%
  % Height Reduction: 10-20%
[10]; imazamox 71 g/ha, 14 DAT
  % Chlorosis: 90%
  % Height Reduction: 100%
[10]; imazamox 71 g/ha, 30 DAT
  % Chlorosis: 100%
  % Height Reduction: 100%
[10]; imazamox 160 g/ha, 14 DAT
  % Chlorosis: 90%
  % Height Reduction: 100%
[10]; imazamox 160 g/ha, 30 DAT
  % Chlorosis: 100%
  % Height Reduction: 100%
[10]; imazamox 71 g/ha and 160 g/ha (both rates), all plants of the wild type
  survival of wild type plants: killed
Susceptible durum wheat; imazamox application rate
  rate adequate to kill susceptible durum wheat: 35 g/ha
Susceptible durum wheat; read-out: mortality of susceptible wheat
  mortality at 35 g/ha: ~100%
[11]; imazamox 71 g/ha and 160 g/ha (both rates), all tested M3:4 lines
  survival of tested lines: survived
[11]; lines evaluated at 71 and 160 g/ha imazamox
  tolerated rate relative to the 35 g/ha rate that kills susceptible durum wheat: almost 3 times to over 4 times
[12]
  AHAS activity relative to that of the control: one third to one half
